This is an account of results in ChEMBL document CHEMBL2203167, “Structural modifications of 5,6-dihydroxypyrimidines with anti-HIV activity” (Bioorg Med Chem Lett, 2012).

Data set [1] in a line: Therapeutic index, ratio of CC50 for human C8166 cells to EC50 for HIV1 3B. The data set is classed as cell-based. To be noted: read-out: Ratio CC50/EC50.
Data set [2] in a line: Cytotoxicity against human C8166 cells after 3 days by MTT assay. In kind it is cell-based.
For data set [3], the system named is Human immunodeficiency virus 1. Description: Antiviral activity against HIV1 3B infected in human C8166 cells assessed as inhibition of syncytia after 3 days. Particulars: Human immunodeficiency virus 1, 3B, C8166, 72 h. In kind it is functional, organism-based.

The structures appear in SMILES notation.

Take `COc1ccc(CNC(=O)c2nc(C(C)(C)NC(=O)OCc3ccccc3)nc(O)c2O)cc1`: in data set [1], the selectivity ratio was determined as 1090. In addition, it took 164 µM to reach half-maximal cytotoxicity in data set [2] (CC50 at 72 h). The concentration giving a half-maximal response (EC50) in data set [3] was determined as 0.15 µM.

Regarding `COc1cc(CNC(=O)c2nc(C(C)(C)NC(=O)OCc3ccccc3)nc(O)c2O)cc(OC)c1OC`, the selectivity ratio in data set [1] came to 8.89. The midpoint of cytotoxicity in data set [2], the CC50 at 72 h, lay at 110 µM. Moreover, the 50% effective concentration (EC50) in data set [3] came to 12.3 µM.

With `CC(C)(NC(=O)OCc1ccccc1)c1nc(O)c(O)c(C(=O)NCCc2ccc(F)cc2)n1`, the selectivity ratio in data set [1] is 4.11. The same compound had a 50% cytotoxic concentration (CC50) at 72 h in data set [2] of 35.4 µM. The EC50 in data set [3] came to 8.61 µM.

Consider `CC(C)(NC(=O)OCc1ccccc1)c1nc(O)c(O)c(C(=O)NCCc2ccccc2)n1`, for which, in data set [1], the selectivity ratio stood at 3.32. The same compound displayed a CC50 at 72 h in data set [2] of 38.5 µM. In data set [3], the EC50 stood at 11.6 µM.

With `CC(C)(NC(=O)OCc1ccccc1)c1nc(O)c(O)c(C(=O)NCCc2cc3ccccc3[nH]2)n1`, the selectivity ratio in data set [1] was 4.76. Moreover, in data set [2], the 50% cytotoxic concentration (CC50) at 72 h stood at 34.1 µM. In addition, the concentration giving a half-maximal response (EC50) in data set [3] came to 7.12 µM.

On to `COCCNC(=O)c1nc(C(C)(C)NC(=O)OCc2ccccc2)nc(O)c1O`, for which, in data set [1], the selectivity ratio is 13.4. Besides, in data set [2], the midpoint of cytotoxicity, the CC50 at 72 h, lay at 348 µM. The concentration for a half-maximal effect (EC50) in data set [3] came out at 26 µM.

For the compound `COCCCNC(=O)c1nc(C(C)(C)NC(=O)OCc2ccccc2)nc(O)c1O`, the selectivity ratio in data set [1] amounted to 31.2. The compound also had a CC50 at 72 h in data set [2] of 259 µM. Further, the EC50 in data set [3] was found to be 8.3 µM.

For the compound `CC(C)(NC(=O)OCc1ccccc1)c1nc(O)c(O)c(C(=O)NCC2CC2)n1`, the selectivity ratio in data set [1] was 8.33. In addition, in data set [2], half-maximal cytotoxicity (CC50 at 72 h) was put at 204 µM. In addition, in data set [3], the concentration giving a half-maximal response (EC50) came out at 24.4 µM.

Consider `CC(C)(NC(=O)OCc1ccccc1)c1nc(O)c(O)c(C(=O)NN)n1`, for which the selectivity ratio in data set [1] is more than 3.37. For the same compound, the CC50 at 72 h in data set [2] was more than 500 µM. In addition, the EC50 in data set [3] came out at 164 µM.

`CC(C)(NC(=O)OCc1ccccc1)c1nc(O)c(O)c(C(=O)N/N=C/c2ccc(F)cc2)n1`: in data set [1], the selectivity ratio stood at 13.7. Also, in data set [2], the half-maximal cytotoxic concentration (CC50) at 72 h was found to be 378 µM. The 50% effective concentration (EC50) in data set [3] worked out at 27.7 µM.

Regarding `CC(C)(NC(=O)OCc1ccccc1)c1nc(O)c2oc(=O)[nH]c2n1`, in data set [1], the selectivity ratio is more than 7.83. The same compound had a CC50 at 72 h in data set [2] of more than 500 µM. The EC50 in data set [3] stood at 74.2 µM.

With `CC(C)(NC(=O)OCc1ccccc1)c1nc(O)c(O)c(NC(=O)NCc2ccc(F)cc2)n1`, the selectivity ratio in data set [1] is 8.21. In data set [2], this compound registered a CC50 at 72 h of 81.1 µM. Further, in data set [3], the EC50 was 9.87 µM.

For `COc1ccc(CNC(=O)Nc2nc(C(C)(C)NC(=O)OCc3ccccc3)nc(O)c2O)cc1`, in data set [1], the selectivity ratio came out at 4.46. In addition, in data set [2], the CC50 at 72 h was more than 500 µM. Besides, the EC50 in data set [3] worked out at 93.2 µM.

Turning to `COCCNC(=O)Nc1nc(C(C)(C)NC(=O)OCc2ccccc2)nc(O)c1O`, the selectivity ratio in data set [1] is more than 9.13. The same compound came in with a half-maximal cytotoxic concentration (CC50) at 72 h in data set [2] of more than 500 µM. Besides, the EC50 in data set [3] came out at 52.3 µM.

On to `CC(C)(NC(=O)OCc1ccccc1)c1nc(O)c(O)c(C(=O)NCc2ccccc2)n1`, for which the selectivity ratio in data set [1] is 128. For the same compound, the midpoint of cytotoxicity in data set [2], the CC50 at 72 h, lay at 41.4 µM. The concentration giving a half-maximal response (EC50) in data set [3] was found to be 0.32 µM.

`CC(C)(NC(=O)OCc1ccccc1)c1nc(O)c(O)c(C(=O)NCc2ccccc2Cl)n1`: the selectivity ratio in data set [1] was determined as 396. In addition, half-maximal cytotoxicity in data set [2] (CC50 at 72 h) was put at 53.9 µM. The 50% effective concentration (EC50) in data set [3] was determined as 0.14 µM.

For the compound `Cc1ccc(CNC(=O)c2nc(C(C)(C)NC(=O)OCc3ccccc3)nc(O)c2O)cc1`, the selectivity ratio in data set [1] was 383. This compound gave a CC50 at 72 h in data set [2] of 234 µM. In data set [3], the EC50 was 0.55 µM.

Consider `CC(C)(NC(=O)OCc1ccccc1)c1nc(O)c(O)c(C(=O)NCc2ccc(C(F)(F)F)cc2)n1`, for which, in data set [1], the selectivity ratio worked out at 244. In data set [2], this compound returned a CC50 at 72 h of 58.1 µM. Also, the EC50 in data set [3] turned out to be 0.24 µM.

`Cc1cn([C@H]2C[C@H](N=[N+]=[N-])[C@@H](CO)O2)c(=O)[nH]c1=O` [ZIDOVUDINE]: the selectivity ratio in data set [1] is 274000. Besides, the EC50 in data set [3] was 0.019 µM.
